Laboratory results reported in publication PMC6628320, “Poly-Saturated Dolichols from Filamentous Fungi Modulate Activity of Dolichol-Dependent Glycosyltransferase and Physical Properties of Membranes” (International Journal of Molecular Sciences, 2019).

Tests used:
Assay in all cases: radiometric GDP[…]mannose transfer, membrane fraction, organic-phase counting
Assay type in all cases: biochemical
Settings in all cases: GDP[14C]mannose co-substrate, 10 mM MgCl2, 0.1% Nonidet P-40, pH 7.4, 30 °C, 5 min; 50 µL assay (amount, not concentration)
[1] = molecular target: T1, ScDPMS (DPMS from S. cerevisiae) (Saccharomyces cerevisiae, UniProt P14020)
T1 construct: gene DPM1; native enzyme in yeast membrane fraction, not purified; Type I, exclusively Dpm1 subunit
T1 sequence (P14020 2-267): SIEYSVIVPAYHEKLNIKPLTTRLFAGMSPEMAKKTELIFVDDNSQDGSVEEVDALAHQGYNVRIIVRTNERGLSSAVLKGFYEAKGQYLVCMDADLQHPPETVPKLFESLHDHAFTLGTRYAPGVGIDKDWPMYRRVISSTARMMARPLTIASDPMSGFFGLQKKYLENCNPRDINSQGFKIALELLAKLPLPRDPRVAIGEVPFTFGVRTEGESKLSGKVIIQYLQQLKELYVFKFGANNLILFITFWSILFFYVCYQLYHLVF

[2] = molecular target: T2, TrDPMS-1,3 (T. reesei Dpm1,3 expressed in S. cerevisiae) (Trichoderma reesei, UniProt G0R8U7)
T2 construct: dpm1Tr (p415 GPD LEU) and dpm3Tr (pESC-URA) in S. cerevisiae dpm1dr∆ mutant; yeast membrane fraction; Dpm2 omitted; with Dolichol-phosphate mannosyltransferase subunit 3
T2 sequence (G0R8U7 entry or part of it): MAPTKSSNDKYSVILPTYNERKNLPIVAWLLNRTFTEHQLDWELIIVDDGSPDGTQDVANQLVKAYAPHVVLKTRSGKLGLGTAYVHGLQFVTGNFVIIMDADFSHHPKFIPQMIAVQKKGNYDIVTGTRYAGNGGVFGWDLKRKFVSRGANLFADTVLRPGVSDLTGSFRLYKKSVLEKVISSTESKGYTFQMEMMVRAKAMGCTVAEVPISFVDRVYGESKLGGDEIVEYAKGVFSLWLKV
T2 sequence (C6KF57 entry or part of it, further chain): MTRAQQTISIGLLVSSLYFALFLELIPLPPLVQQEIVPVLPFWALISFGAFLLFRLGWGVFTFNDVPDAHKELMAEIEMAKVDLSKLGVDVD

[3] = molecular target: T3, TrDPMS (DPMS from T. reesei) (Trichoderma reesei, UniProt G0R8U7)
T3 construct: gene dpm1; native Dpm1/Dpm2/Dpm3 complex in the membrane fraction of T. reesei, not purified; with Dolichol phosphate-mannose biosynthesis regulatory protein; Dolichol-phosphate mannosyltransferase subunit 3
T3 sequence (G0R8U7 1-243): as the sequence (G0R8U7 entry or part of it) above
T3 sequence (C6KF57 1-92 partner): as the sequence (C6KF57 entry or part of it, further chain) above
T3 sequence (C6KF56 1-80 partner): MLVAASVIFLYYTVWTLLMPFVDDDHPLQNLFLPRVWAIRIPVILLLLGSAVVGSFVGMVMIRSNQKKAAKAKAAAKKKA

S. cerevisiae / Km [1]: 730 ng
S. cerevisiae / Km [2]: 730 ng
T. reesei / Km [3]: 3500 ng
Compound: CC(C)=CCC/C(C)=C/CC/C(C)=C/CC/C(C)=C\CC/C(C)=C\CC/C(C)=C\CC/C(C)=C\CC/C(C)=C\CC/C(C)=C\CC/C(C)=C\CCC(C)CCOP(=O)(O)O (stereo not drawn) [Dol-P11]
